Test system: FGFR3 enzyme
Assay: FGFR Enzymatic Assay (FRET peptide phosphorylation), FGFR3
Format: biochemical
Settings: IC50 ratio showing FGFR3 selectivity; Table 2A, pre-incubated for 4 hours
Method: The inhibitor potency of the exemplified compounds was measured in an enzyme assay that measures peptide phosphorylation using FRET measurements to detect product formation. Inhibitors were serially diluted in DMSO and a volume of 0.5 μL was transferred to the wells of a 384-well plate.
GraphPad prism3 was used to analyze the data.

Row | FGFR1/FGFR3 | FGFR4/FGFR3 | SMILES
1 | >5 | >5 | CCN1C(=O)N(c2c(F)c(OC)cc(OC)c2F)Cc2cnc(-c3ccc(N4CCOCC4)nc3)cc21 [Example 182, 3-(2,6-difluoro-3,5-dimethoxyphenyl)-1-ethyl-7-(6-morpholinopyridin-3-yl)-3,4-dihydropyrido[4,3-d]pyrimidin-2(1H)-one]
2 | >5 | >10 | COc1cc(N2C(=O)N(c3c(F)c(OC)cc(OC)c3F)Cc3cnc(-c4cn(C)nc4C)cc32)ccc1C#N [Example 81, 4-(3-(2,6-difluoro-3,5-dimethoxyphenyl)-7-(1,3-dimethyl-1H-pyrazol-4-yl)-2-oxo-3,4-dihydropyrido[4,3-d]pyrimidin-1(2H)-yl)-2-methoxybenzonitrile]
3 | >5 | >10 | COc1cc(OC)c(F)c(N2Cc3cnc(-c4cn(C)nc4C)cc3N(c3ccc(-n4cccn4)cc3)C2=O)c1F [Example 77, 1-(4-(1H-pyrazol-1-yl)phenyl)-3-(2,6-difluoro-3,5-dimethoxyphenyl)-7-(1,3-dimethyl-1H-pyrazol-4-yl)-3,4-dihydropyrido[4,3-d]pyrimidin-2(1H)-one]
4 | >3 | >5 | CCc1cnc(N2C(=O)N(c3c(F)c(OC)cc(OC)c3F)Cc3cnc(-c4cn(C)nc4C)cc32)cn1 [Example 106, 3-(2,6-difluoro-3,5-dimethoxyphenyl)-7-(1,3-dimethyl-1H-pyrazol-4-yl)-1-(5-ethylpyrazin-2-yl)-3,4-dihydropyrido[4,3-d]pyrimidin-2(1H)-one]
5 | >5 | >10 | CCN1C(=O)N(c2c(F)c(OC)cc(OC)c2F)Cc2cnc(-c3ccc(C4(C#N)CCC4)cc3)cc21 [Example 181, 1-(4-(3-(2,6-difluoro-3,5-dimethoxyphenyl)-1-ethyl-2-oxo-1,2,3,4-tetrahydropyrido[4,3-d]pyrimidin-7-yl)phenyl)cyclobutanecarbonitrile]
6 | >3 | >5 | COc1cc(OC)c(F)c(N2Cc3cnc(-c4cn(C)nc4C)cc3N(c3ccccc3F)C2=O)c1F [Example 110, 3-(2,6-difluoro-3,5-dimethoxyphenyl)-7-(1,3-dimethyl-1H-pyrazol-4-yl)-1-(2-fluorophenyl)-3,4-dihydropyrido[4,3-d]pyrimidin-2(1H)-one]
7 | >5 | >3 | COc1cc(OC)c(F)c(N2Cc3cnc(-c4cn(C)nc4C)cc3N(c3ccc4nc(C)oc4c3)C2=O)c1F [Example 75, 3-(2,6-difluoro-3,5-dimethoxyphenyl)-7-(1,3-dimethyl-1H-pyrazol-4-yl)-1-(2-methylbenzo[d]oxazol-6-yl)-3,4-dihydropyrido[4,3-d]pyrimidin-2(1H)-one]
8 | >5 | >5 | COc1cc(OC)c(F)c(N2Cc3cnc(-c4cn(C)nc4C)cc3N(c3cccc(F)c3)C2=O)c1F [Example 99, 3-(2,6-difluoro-3,5-dimethoxyphenyl)-7-(1,3-dimethyl-1H-pyrazol-4-yl)-1-(3-fluorophenyl)-3,4-dihydropyrido[4,3-d]pyrimidin-2(1H)-one]
9 | >10 | >5 | COc1cc(OC)c(F)c(N2Cc3cnc(-c4cn(C)nc4C)cc3N(c3ccc4ccncc4c3)C2=O)c1F [Example 63, 3-(2,6-difluoro-3,5-dimethoxyphenyl)-7-(1,3-dimethyl-1H-pyrazol-4-yl)-1-(isoquinolin-7-yl)-3,4-dihydropyrido[4,3-d]pyrimidin-2(1H)-one]
10 | >3 | >10 | CCN1C(=O)N(c2c(F)c(OC)cc(OC)c2F)Cc2cnc(-c3ccc(C4(C#N)CC4)cc3)cc21 [Example 183, 1-(4-(3-(2,6-difluoro-3,5-dimethoxyphenyl)-1-ethyl-2-oxo-1,2,3,4-tetrahydropyrido[4,3-d]pyrimidin-7-yl)phenyl)cyclopropanecarbonitrile]
11 | >3 | >5 | COc1ccc(N2C(=O)N(c3c(F)c(OC)cc(OC)c3F)Cc3cnc(-c4cn(C)nc4C)cc32)cc1 [Example 104, 3-(2,6-difluoro-3,5-dimethoxyphenyl)-7-(1,3-dimethyl-1H-pyrazol-4-yl)-1-(4-methoxyphenyl)-3,4-dihydropyrido[4,3-d]pyrimidin-2(1H)-one]
12 | >5 | >3 | COc1cc(OC)c(F)c(N2Cc3cnc(-c4cnn(CCN5CCC(OC)CC5)c4)cc3C3(CC3)C2=O)c1F [Example 152, 2′-(2,6-difluoro-3,5-dimethoxyphenyl)-6′-(1-(2-(4-methoxypiperidin-1-yl)ethyl)-1H-pyrazol-4-yl)-1′H-spiro[cyclopropane-1,4′-[2,7]naphthyridin]-3′(2′H)-one]
13 | >5 | >5 | COc1cc(OC)c(F)c(N2Cc3cnc(-c4cn(C)nc4C)cc3N(Cc3cncnc3)C2=O)c1F [Example 84, 3-(2,6-difluoro-3,5-dimethoxyphenyl)-7-(1,3-dimethyl-1H-pyrazol-4-yl)-1-(pyrimidin-5-ylmethyl)-3,4-dihydropyrido[4,3-d]pyrimidin-2(1H)-one]
14 | >5 | >3 | COc1cc(OC)c(F)c(N2Cc3cnc(-c4cn(C)nc4C)cc3N(c3ccc(C#N)cn3)C2=O)c1F [Example 79, 6-(3-(2,6-difluoro-3,5-dimethoxyphenyl)-7-(1,3-dimethyl-1H-pyrazol-4-yl)-2-oxo-3,4-dihydropyrido[4,3-d]pyrimidin-1(2H)-yl)nicotinonitrile]
15 | >5 | >3 | COc1cc(OC)c(F)c(N2Cc3cnc(-c4cn(C)nc4C)cc3N(c3cc(F)cc(C#N)c3)C2=O)c1F [Example 78, 3-(3-(2,6-difluoro-3,5-dimethoxyphenyl)-7-(1,3-dimethyl-1H-pyrazol-4-yl)-2-oxo-3,4-dihydropyrido[4,3-d]pyrimidin-1(2H)-yl)-5-fluorobenzonitrile]
16 | >3 | >5 | COc1cc(OC)c(F)c(N2Cc3cnc(-c4cn(C)nc4C)cc3N(c3ccc(-c4nnc(C)o4)cc3)C2=O)c1F [Example 115, 3-(2,6-difluoro-3,5-dimethoxyphenyl)-7-(1,3-dimethyl-1H-pyrazol-4-yl)-1-(4-(5-methyl-1,3,4-oxadiazol-2-yl)phenyl)-3,4-dihydropyrido[4,3-d]pyrimidin-2(1H)-one]
17 | >5 | >3 | CCn1cc(-c2cc3c(cn2)CN(c2c(F)c(OC)cc(OC)c2F)C(=O)C32CC2)c(C)n1 [Example 158, 2′-(2,6-difluoro-3,5-dimethoxyphenyl)-6′-(1-ethyl-3-methyl-1H-pyrazol-4-yl)-1′H-spiro[cyclopropane-1,4′-[2,7]naphthyridin]-3′(2′H)-one]

Row | SMILES | FGFR1/FGFR3 | FGFR4/FGFR3
18 | COc1cc(OC)c(F)c(N2Cc3cnc(-c4cn(CC(=O)N5CCOCC5)nc4C)cc3C3(CC3)C2=O)c1F [Example 159, 2′-(2,6-difluoro-3,5-dimethoxyphenyl)-6′-(3-methyl-1-(2-morpholino-2-oxoethyl)-1H-pyrazol-4-yl)-1′H-spiro[cyclopropane-1,4′-[2,7]naphthyridin]-3′(2′H)-one] | >5 | >3
19 | COc1cc(OC)c(F)c(N2Cc3cnc(-c4cn(C)nc4C)cc3N(c3ccc(F)c(F)c3)C2=O)c1F [Example 102, 3-(2,6-difluoro-3,5-dimethoxyphenyl)-1-(3,4-difluorophenyl)-7-(1,3-dimethyl-1H-pyrazol-4-yl)-3,4-dihydropyrido[4,3-d]pyrimidin-2(1H)-one] | >3 | >10

From US11173162B2, “Bicyclic heterocycles as FGFR4 inhibitors” (Incyte Corporation, priority 2015, dated 2021)
